{"source": "patent US20040001818A1", "about": "“Methods of inhibiting angiogenesis using NADPH oxidase inhibitors” (priority 2000, published 2004)", "key": {"MnSOD mRNA": {"test_system": "MnSOD mRNA", "assay": "Northern blot of MnSOD mRNA in HCAECs", "type": "cell-based, human", "settings": "for VEGF stimulation of MnSOD: HCAEC pre-incubated with 1 μM GF-109203X, 50 μM PD98059 or 20 μM SB 203580; for VEGF-mediated induction of MnSOD: serum-starved HCAECs, VEGF 50 ng/ml, four hours, DPI 5, 25, 100 μM, apocynin 0.3, 2, 5 mM, allopurinol 0.1, 0.5 mM", "method": "Cell culture. Human coronary artery endothelial cells (HCAECs) (Clonetics Corporation, San Diego, Calif., USA) and human pulmonary artery endothelial cells (HPAECs) were grown in Endothelial Growth Medium-2-MV (EGM-2-MV) BulletKit (Clonetics Corporation, San Diego, Calif., USA). At 80-90% confluence, the cells were serum-starved in DMEM containing 0.5% FBS for 24 hours and subsequently treated with VEGF-supplemented medium for the times indicated. Human recombinant VEGF was purchased from PeproTech, Inc. (Rocky Hill, N.J., USA). […] In other studies, the serum-starved cells were pretreated with the MEK inhibitor PD98059 at a final concentration of 50 μM or a specific PKC inhibitor bisindolylmaleimide I (BIM; CalBiochem, San Diego, Calif., USA) at a final concentration of 5 μM for 30 minutes prior to addition of growth factors. An equal amount of DMSO was added to the control plates. Northern blot analyses. Ten micrograms total RNA was loaded on a 0.7% formaldehyde-containing agarose gel. The RNA was transferred to nylon membrane, covalently cross-linked with UV radiation, prehybridized for 6 hours, and hybridized for 18 hours at 42° C. with a [^32P]dCTP-labeled cDNA probe containing MnSOD or eNOS cDNA sequence. The membranes were subsequently stripped and probed with a radiolabeled 18S-ribosome probe. For actinomycin D experiments, HCAEC cells were pretreated with 10 μg/ml actinomycin D (Sigma Chemical Company, St. Louis, Mo., USA) for 30 minutes before addition of VEGF and were harvested for total RNA one hour later.\nTo determine whether VEGF induced expression of MnSOD in primary endothelial cell cultures, HCAECs and HPAECs were serum starved for 24 hours, treated with 40 ng/ml VEGF for 0, 0.5, 1, 2, 4, 12 and 24 hours, and then harvested for total RNA. Northern blots were performed and probed for human MnSOD. […] The membranes were then stripped and reprobed for eNOS.\nTo determine whether the response of MnSOD to VEGF was mediated by ROS, HCAECs were serum starved and then treated with VEGF in the absence or presence of inhibitors of NADPH oxidase (DPI, apocynin), xanthine oxidase (allopurinol) and nitric oxide synthase (L-NAME)."}, "[1]": {"test_system": "human coronary artery endothelial cells (HCAECs)", "assay": "[3H]-thymidine incorporation in HCAECs", "type": "cell-based", "settings": "for thymidine incorporation: HCAECs grown in 10% FBS", "method": "To determine whether the effect of serum or VEGF on endothelial cell proliferation might also be dependent upon ambient levels of ROS, HCAECs were grown to confluence, split into 24 wells, serum starved for eight hours and then incubated in the absence or presence of VEGF for 16 or 24 hours. All wells received 1 μCi of [^3H]-thymidine at the time of treatment. After 16 or 24 hours, medium was removed, and the wells were washed 3 times with PBS. Radioactivity was extracted and thymidine incorporation measured using a scintillation counter."}, "ROS": {"test_system": "ROS", "assay": "ROS generation: DCF oxidation by flow cytometry in DCFDA-labeled HCAECs", "type": "cell-based, human", "settings": "relative to basal rate of control cells", "method": "Western blot analyses. Whole cell protein extracts were prepared from serum-starved HCAECs and HPAECs one hour following addition of growth factor-supplemented or mock-treated media. Cells were washed twice with cold phosphate-buffered saline, harvested with a cell scraper, and lysed in ice-cold lysis buffer containing 20 mM HEPES, pH 7.5, 150 mM NaCl, 1% NP-40, 0.1% SDS, 1 mM EDTA, 1 mM DTT, 0.5 mM phenylmethylsulfonyl fluoride (PMSF), and the protease inhibitor cocktail (Boehringer Mannheim, Mannheim, Germany) for one hour. The resulting lysates were centrifuged at 10,000× g for 20 minutes and the supernatants were saved as whole cell protein extracts. Forty micrograms of protein were separated by 10% SDS-PAGE and electrotransferred to nitrocellulose membranes. Membranes were blocked with 5% nonfat dry milk in Tris-buffered saline with 0.1% Tween 20 for one hour at room temperature. The blot was incubated with primary rabbit polyclonal anti-MnSOD IgG (1:1000 dilution) (Santa Cruz Biotechnology Inc., Santa Cruz, Calif., USA) overnight at 4° C., followed by secondary antibody goat-anti-rabbit horseradish peroxidase conjugate (1:1000 dilution) (Pierce, Rockford, Ill., USA). The blot was washed extensively between each incubation step. Peroxidase activity was visualized with an enhanced chemiluminescense substrate system (Amersham, Arlington Heights, Ill., USA). Membranes were stripped and probed for eNOS and β-actin. Flow cytometry. Endothelial cells were labeled with DCFDA and oxidation of DCF was measured by flow cytometry.\nTo test whether VEGF increases ROS production in endothelial cells, HCAECs were labeled with […] DCFDA and oxidation of DCF was measured by flow cytometry. […] PMS is known to induce free oxygen radicals."}, "[2]": {"test_system": "mouse embryonic fibroblasts", "assay": "[3H]-thymidine incorporation in primary murine embryonic fibroblasts", "type": "cell-based", "settings": "10% FBS, 16 hours", "method": "To determine whether the effect of NADPH oxidase inhibition was specific to endothelial cells, the effect of the various inhibitors on thymidine incorporation in primary murine embryonic fibroblasts was tested. The results are shown in FIG. 13, which is a histogram showing thymidine incorporation (y-axis) in mouse embryonic fibroblasts that have been grown in 0.5% FBS or 10% FBS in the absence (10% FBS) or presence of inhibitors (Apo=apocynin; allo=allopurinol; L-NAME) for 16 hours."}, "[3]": {"test_system": "human coronary artery endothelial cells (HCAECs)", "assay": "VEGF-induced chemotaxis of HCAECs, Boyden chamber assay", "type": "cell-based", "settings": "for inhibition of migration, dose dependence: VEGF 50 ng/ml, DPI 0.5, 1.0, 5.0, 10 μM, AEBSF 5, 50, 100, 250 μM", "method": "The capacity of NADPH oxidase inhibitors to block migration of human coronary artery endothelial cells was tested. In these studies, VEGF-induced chemotaxis was tested with the Boyden chamber assay. Human coronary artery endothelial cells were serum starved in 0.5% FBS overnight. 25,000 cells were seeded into the upper chamber in the absence or presence of DPI, while media containing 0.5% FBS and 40 ng/ml was placed into the lower chamber. The chamber was incubated for 4 hours at 37° C., at which time the polycarbonate filters were harvested and counted for migrating cells. The results are shown in FIG. 14, which is a histogram showing the migration in terms of cell count (y-axis) of human coronary artery endothelial cells in a Boyden chamber. The cells were serum starved in 0.5% FBS and treated with either VEGF, DPI or VEGF+DPI (x-axis).\nThe effect of AEBSF on VEGF-induced migration was also studied. HCAECs were treated as above and treated by either VEGF, VEGF+100 μM allopurinol, or VEGF+250 μM AEBSF. The results are shown in FIG. 15, which is a histogram showing migration in terms of cell count (y-axis) when treated (x-axis). The NADPH oxidase inhibitor AEBSF abrograted the VEGF-mediated chemotaxis of HCAECs.\nThese are histograms showing VEGF-mediated chemotaxis in control HCAECs (“C”), or HCAECs treated with 50 ng/ml VEGF in the absence or presence of increasing doses of DPI (0.5, 1.0, 5.0 or 10 μM; FIG. 16A) or AEBSF (5, 50, 100 or 250 μM; FIG. 16B)."}, "[4]": {"settings": "serum starved (0.5% FBS) and VEGF-treated HCAECs, 16 or 24 hours"}}, "note": "Starred links: 1 amine or outer side, 2 acyl side, 3 side chain; linkers in the order of their positions; H or OH if unused. Positions of bridges follow the written chain, without caps; N, C: chain ends. Non-standard residues stand in square brackets, D forms with d. Residues, ends and D or L forms follow the SMILES beside them. Chains are numbered I, II in the order given. Actinocin(9to1) = Cc1c2oc3c(C)ccc(C(=O)[*:1])c3nc-2c(C(=O)[*:2])c(N)c1=O; NMeV = CN[C@H](C(=O)O)C(C)C; Sar = CNCC(=O)O"}
{"smiles": "Cc1c2oc3c(C)ccc(C(=O)N[C@@H]4C(=O)N[C@H](C(C)C)C(=O)N5CCC[C@H]5C(=O)N(C)CC(=O)N(C)[C@@H](C(C)C)C(=O)O[C@@H]4C)c3nc-2c(C(=O)N[C@@H]2C(=O)N[C@H](C(C)C)C(=O)N3CCC[C@H]3C(=O)N(C)CC(=O)N(C)[C@@H](C(C)C)C(=O)O[C@@H]2C)c(N)c1=O", "note": "[Actinomycin D, actinomycin D] (I: T[dV]P[Sar][NMeV] / II: T[dV]P[Sar][NMeV]; ester I:1-I:C, II:1-II:C; linker I:N-II:N via Actinocin(9to1))", "values": [{"measurement": "VEGF-mediated induction of MnSOD mRNA", "setting": "MnSOD mRNA; HCAEC, 10 μg/ml actinomycin D for 30 minutes before 60 minute incubation with VEGF", "value": "completely abolished"}]}
{"smiles": "C[S+]([O-])c1ccc(-c2nc(-c3ccncc3)c(-c3ccc(F)cc3)[nH]2)cc1", "note": "(stereo not shown) [SB 203580]", "values": [{"measurement": "VEGF stimulation of MnSOD", "setting": "MnSOD mRNA", "value": "not"}]}
{"smiles": "COC(=O)[C@@H](N)CCCNC(=N)N[N+](=O)[O-]", "note": "[L-NAME]", "values": [{"measurement": "thymidine incorporation", "setting": "[1]", "value": "no effect"}, {"measurement": "DCF oxidation (ROS production)", "setting": "ROS", "value": "no effect"}]}
{"smiles": "COS(=O)(=O)[O-].C[n+]1c2ccccc2nc2ccccc21", "note": "[PMS]", "values": [{"measurement": "DCF oxidation (ROS production)", "setting": "ROS", "value": "increased ROS production"}]}
{"smiles": "CCCCCCCCCCCCCC(=O)O[C@@H]1[C@@H](C)[C@@]2(O)[C@@H](C=C(CO)C[C@]3(O)C(=O)C(C)=C[C@@H]23)[C@@H]2C(C)(C)[C@]12OC(C)=O", "note": "[PMA]", "values": [{"measurement": "DCF oxidation (ROS production)", "setting": "ROS", "value": "significantly increased"}]}
{"smiles": "COc1cccc(-c2cc(=O)c3ccccc3o2)c1N", "note": "[PD98059]", "values": [{"measurement": "VEGF stimulation of MnSOD", "setting": "MnSOD mRNA", "value": "not"}]}
{"smiles": "CN(C)CCCn1cc(C2=C(c3c[nH]c4ccccc34)C(=O)NC2=O)c2ccccc21", "note": "[GF-109203X]", "values": [{"measurement": "VEGF stimulation of MnSOD", "setting": "MnSOD mRNA", "value": "significantly reduced"}]}
{"smiles": "COc1cc(C(C)=O)ccc1O", "note": "[apocynin]", "values": [{"measurement": "VEGF-mediated induction of MnSOD", "setting": "MnSOD mRNA", "value": "inhibited"}, {"measurement": "serum-induced thymidine incorporation", "setting": "[1]; HCAECs, 5.0% FBS, apocynin 300 μM, 500 μM, 1 mM, 2 mM, 3 mM", "value": "dose-dependent inhibition"}, {"measurement": "thymidine incorporation", "setting": "[2]", "value": "failed to reduce incorporation below baseline"}]}
{"smiles": "O=C1c2ccccc2Cc2ccccc21", "note": "[anthrone]", "values": [{"measurement": "thymidine uptake", "setting": "[1]; [4]", "value": "profound inhibition"}]}
{"smiles": "c1ccc2c(c1)[I+]c1ccccc1-2", "note": "[DPI, diphenyleneiodonium]", "values": [{"measurement": "VEGF-mediated induction of MnSOD", "setting": "MnSOD mRNA", "value": "inhibited"}, {"measurement": "DPI concentration inhibiting serum-induced thymidine incorporation", "setting": "[1]; HCAECs in 5.0% FBS, doses 1, 5, 25, 40, 80 μM", "value": "≤ 1", "unit": "µM"}, {"measurement": "thymidine uptake", "setting": "[1]; [4]", "value": "profound inhibition"}, {"measurement": "migration (cell count)", "setting": "[3]; 25 μM DPI, VEGF in lower chamber, 4 hours", "value": "profound inhibition"}, {"measurement": "inhibition of migration, dose dependence", "setting": "[3]", "value": "dose-dependent"}, {"measurement": "DCF oxidation (ROS production)", "setting": "ROS", "value": "significantly inhibited"}]}
{"smiles": "NCCc1ccc(S(=O)(=O)F)cc1", "note": "[AEBSF, 4-(2-aminoethyl)-benzenesulfonyl fluoride]", "values": [{"measurement": "VEGF-mediated induction of MnSOD mRNA", "setting": "MnSOD mRNA; pretreatment with the inhibitor, concentration not given", "value": "inhibited"}, {"measurement": "thymidine uptake", "setting": "[1]; HCAECs, 5% FBS, AEBSF 5, 50, 100, 500 μM", "value": "inhibited"}, {"measurement": "inhibition of migration, dose dependence", "setting": "[3]", "value": "dose-dependent"}, {"measurement": "VEGF-mediated chemotaxis", "setting": "[3]; VEGF + 250 μM AEBSF", "value": "abrograted"}]}
{"smiles": "Oc1ncnc2[nH]ncc12", "note": "[allopurinol]", "values": [{"measurement": "thymidine incorporation", "setting": "[1]", "value": "no effect"}, {"measurement": "DCF oxidation (ROS production)", "setting": "ROS", "value": "no effect"}]}
{"smiles": "CN(C)CCCn1cc(C2=C(c3c[nH]c4ccccc34)C(=O)NC2=O)c2ccccc21", "note": "[BIM, bisindolylmaleimide I]", "values": [{"measurement": "VEGF-mediated induction of MnSOD mRNA", "setting": "MnSOD mRNA; preincubation, BIM 0.1, 1, 5 μM, PD98059 5, 20, 100 μM", "value": "inhibited"}]}
